# Measurements as given in patent publication US8119614B2, “Substitution derivatives of N6-benzyladenosine, methods of their preparation, their use for preparation of drugs, cosmetic preparations and growth regulators, pharmaceutical preparations, cosmetic preparations and growth regulators containing these compounds” (Ustav Experimentalni Botaniky Akademie Ved Ceske Republiky, priority 2002, dated 2012).
# Key:
# [1] = tested on: caspase-9; test: Caspase protease activity measurement in cell extracts, caspase-9; assay type: cell-based, human; conditions: 20 μM, substrate Ac-LEHD-AFC (FIG. 9)
# Experimental: Caspase protease activity measurement. Cells were washed in PBS and then extracted in buffer [50 mM HEPES, pH 7.4, 1 mM EDTA, 0.1% Chaps, 5 mM DTT, and proteinase inhibitor cocktail (Roche)] on ice. Cell extracts were centrifuged for 30 min at 30 000×g at 4° C. Clarified extract were immediately analysed or stored at −80° C. […] The assay was carried out in 1 ml tubes, aliquots of lysates (200-300 μg of total protein) were mixed with 1 ml of buffer (25 mM PIPES/KOH, 2 mM EGTA, 5 mM DTT, and 0.1% Chaps, pH 7.3) and reactions were initiated by adding 50 μM substrate. Samples were incubated for 1 hour at 30° C. before the fluorescence was determined. Excitation and emission wavelengths were the same for both substrates (380 nm and 445 nm, respectively).
# [2] = tested on: caspase-3; test: Caspase protease activity measurement in cell extracts, caspase-3; assay type: cell-based, human; conditions: 20 μM, substrate Ac-DEVD-AMC (FIG. 9)
# Experimental: Caspase protease activity measurement. Cells were washed in PBS and then extracted in buffer [50 mM HEPES, pH 7.4, 1 mM EDTA, 0.1% Chaps, 5 mM DTT, and proteinase inhibitor cocktail (Roche)] on ice. Cell extracts were centrifuged for 30 min at 30 000×g at 4° C. Clarified extract were immediately analysed or stored at −80° C. Measurement of proteolytic activity was done using synthetic fluorogenic substrates Ac-DEVD-AMC and Ac-LEHD-AMC for caspase-3 and -9, respectively. The assay was carried out in 1 ml tubes, aliquots of lysates (200-300 μg of total protein) were mixed with 1 ml of buffer (25 mM PIPES/KOH, 2 mM EGTA, 5 mM DTT, and 0.1% Chaps, pH 7.3) and reactions were initiated by adding 50 μM substrate. Samples were incubated for 1 hour at 30° C. before the fluorescence was determined. Excitation and emission wavelengths were the same for both substrates (380 nm and 445 nm, respectively).
# [3] = tested on: HL-60 cells; test: HL-60 cell proliferation and viability (FDA/PI staining); assay type: cell-based, human
# Experimental: Cell culture. A suspension of human promyelocytic HL-60 cells was cultured in RPMI-1640 medium supplemented with a 10% calf foetal serum and antibiotics in 5% CO2 atmosphere at 37° C. Cells were maintained at density from 1×10^5 to 6×10^5 cells per ml. HL-60 cells were obtained from ECACC.
# Cell viability assay. Double staining with fluorescein diacetate (FDA) and propidium iodide (PI) for discrimination of dead and living cells was used. Cells were stained in growing medium with PI at a concentration 10 μg/ml 5 min later FDA was added at a concentration 1 μg/ml. The percentage of dead cells (i.e., red stained cells) was evaluated using fluorescence microscopy (Mlejnek and Kolman 1999).
# [4] = tested on: p21^WAF-1 protein; test: Induction of p21^WAF-1 protein in MCF-7 cells (SDS-PAGE, immunodetection); assay type: cell-based, human
# Experimental: MCF-7 cells cultured at 37° C. in 5% CO2 atmosphere in D-MEM medium supplemented with 10% foetal calf serum were treated with 2OH3MeOBAPR concentrations range of 0-100 μM. 2OH3MeOBAPR was added into the medium from the 100 mM storage solution in DMSO. Cells were harvested after 12 hours incubation with 2OH3MeOBAPR, centrifuged (1000 rpm, 4° C., 5 min), washed twice by ice-cold PBS and re-centrifuged. These washed cells were then lysed by 1×CSB (loading buffer for SDS-PAGE, i.e. electrophoresis of proteins in polyacrylamide gel containing SDS). Cell lysate proteins were separated by SDS-PAGE and transferred onto a nitrocelulose (NC) membrane. NC membrane was blocked by 5% skimmed milk, 0.1% Tween 20 in PBS. Protein level of p21^WAF-1 and actin (as a loaded protein volume control) were detected immunochemically using commercially available specific monoclonal antibodies anti-p21^WAF-1 (Ab-1, Calbiochem) and anti-Actin (Clone AC-40, Sigma-Aldrich). The primary antibodies bind to target proteins were detected using rabbit secondary peroxidase-labeled antibody (RAM-Px, DAKO), followed by chemiluminiscence (ECL, Amersham-Pharmacia).
# MCF-7 cells were incubated in presence of 1 μM 2OH3MeOBAPR. Treated cells were harvested and lysed after various time periods of 2OH3MeOBAPR treatment. […]
# [5] = tested on: Rosa hybrida ‘Pailin’; test: Early shoot senescence inhibition of tissue cultured roses; assay type: in vivo; conditions: 10 μM in medium
# Experimental: Rosa hybrida ‘Pailin’ (a cut rose) was cultured in 350 ml vessels with a screw on polycarbonate lid. Each culture vessel contained 100 ml autoclaved medium (120° C., 20 min). The cultures were maintained at 23±2° C. under a 16 h photoperiod at […] m^−2 s^−1 PAR. The basal medium (MBR) contained Murashige and Skoog (1962) macroelements, microelements and vitamins, 36.7 mg/l NaFeEDTA, 50 mg/l NaFeEDDHA, […], 30 g/l sucrose, 100 mg/l glycine, 50 mg/l calcium pantothenate, 100 mg/l L-glutamine and 7 g/l agar-agar. This medium was supplemented with 10 μM of the tested cytokinin. New cytokinins were filter sterilised and added after autoclaving the medium in the vessels. 6-Benzylaminopurine (BAP) was used as a standard compound; the control medium didn't contain any cytokinin. After a culture period of 6 weeks, scoring senescence symptoms was started.
Structure (SMILES),activation of caspase-9 [1],activation of caspase-3 [2],inhibition of HL-60 cell proliferation ([3]; 2.5-60 μM (FIG. 4)),cytotoxicity of the compound itself versus its phosphorylated forms ([3]; HL-60 cells),"p21^WAF-1 protein induction in dependence on duration of incubation ([4]; 1 μM, 6-24 hours after addition)","p21^WAF-1 protein induction in dependence on concentration ([4]; 12 hours, 0-100 μM, effective at units of μmol/liter)",senescence / dying of rose explants (in words) ([5]; listed as 3MeOBAPR),senescence / dying of rose explants (in words) ([5]; listed as mMeOBAPR)
"COc1cccc(CNc2ncnc3c2ncn3[C@@H]2O[C@H](CO)[C@@H](O)[C@H]2O)c1O [2-hydroxy-3-methoxybenzylamino, 6-(2-hydroxy-3-methoxybenzylamino)purine riboside]","activate caspase proteases, especially caspase-9 and -3","activate caspase proteases, especially caspase-9 and -3",inhibit cell proliferation,is not cell cytotoxic by itself,Efficient p21^WAF-1 protein induction is achieved,Efficient p21^WAF-1 protein induction is achieved,,
"COc1cccc(CNc2ncnc3c2ncn3[C@@H]2O[C@H](CO)[C@@H](O)[C@H]2O)c1 [3-methoxybenzylamino, 6-(3-methoxybenzylamino)purine riboside]",,,,,,,Even after 121 days almost all plants were still alive,vigorous Rosa plantlet after 121 days of cultivation
